Legend:
[1] = system: intracellular Ca2+ in rat hepatic stellate cells; experiment: Confocal microscopy of fluo-3 (intracellular calcium); type: cell-based; details: 1.5 μmol/L gliotoxin
Method: (§1) Intracellular calcium concentrations were examined by preloading activated hepatic stellate cells seeded onto 35-mm diameter dishes with 2.5 μmol/L Fluo-3AM for two hours. Mitochondrial integrity was determined by coloading cells with […] TMRM and 1 μmol/M calcein-AM for three hours. After loading, the culture medium was removed and the cells were washed extensively with confocal buffer (145 mmol/L NaCl, 5 mml/L KCl, 1 mmol/L MgSO4, 1 mmol/L NaH2PO4, 10 mmol/L HEPES, 25 mmol/L glucose, 1 mmol/L CaCl2 and 2 mg/mL bovine serum albumin, pH 7.4) and incubated at 37° C. in 2 mL confocal buffer containing 1.5 μmol/L gliotoxin or DMSO vehicle control.
(§2) Fluo-3 and calcein fluorescence were excited at 488 nm and collected at 515-530 nm using a band width filter. TMRM was excited at 543 nm and collected at wavelengths greater than 570 nm.
MPT results in futile Ca^2+ cycling by mitochondria, which enhances the likelihood of cell death (Crompton et al., Biochem. J. (1999) 341: 233-249). The role of the MPT in the late events of gliotoxin apoptosis was also therefore assessed by measuring intracellular calcium levels. Culture-activated (14-day) rat hepatic stellate cells in six-well plates were loaded with fluo-3 and fluorescence imaged as outlined in the Materials and methods section after treatment with DMSO control or 1.5 μmol/L gliotoxin.

[2] = system: caspase 3 activity in rat hepatic stellate cells; experiment: Caspase 3 (Ac-DEVD-pNA cleavage) activity in rat hepatic stellate cells; type: cell-based; details: 1.5 μmol/L, three hours, versus DMSO control
Method: Hepatic stellate cells cultured in 100 mm diameter dishes (Greiner, Frickenhausen, Germany) were harvested and pelleted by centrifugation. The medium supernatant was discarded and the cell pellet was washed in 1 mL of ice-cooled phosphate buffered saline (PBS). Caspase 3 (DEVDase) activity was determined using a colorimetric CaspACE kit (Promega, Southampton, England) using the manufacturer's instructions.
Caspase 3 (Ac-DEVD-pNA cleavage) activity was then examined in control and gliotoxin-treated hepatic stellate cells. Culture activated rat hepatic stellate cells (14 days) in 100 mm diameter plates were treated with 0.05% (vol/vol) DMSO, 1.5 μmol/L gliotoxin, 20 μmol/L Z-VAD-FMK or 200 μmol/L chlorpromazine for three hours. The cells were then harvested for examination of caspase 3 activity as outlined in the materials and methods sections.

[3] = Pilot study for gliotoxin toxicity in rats; type: in vivo, rat; details: 3 mg/kg body weight
[4] = system: mitochondrial permeability transition in rat hepatic stellate cells; experiment: Confocal microscopy of calcein/TMRM (mitochondrial permeability transition); type: cell-based; details: 1.5 μmol/L gliotoxin
Method: as §1
Fluorescence images were collected at 1 μm intervals using an Olympus BX50WI microscope fitted with the Biorad microradiance confocal scanning system.
as §2
Culture activated rat hepatic cells (14 day) were loaded with calcein (green fluorescence) and TMRM (red fluorescence) and then treated with either 0.05% (vol/vol) DMSO vehicle or alternatively 1.5 μmol/L gliotoxin. Green fluorescence and red fluorescence were imaged at regular time points as outlined in Materials and Methods and the results obtained were typical for at least three separate experiments.

rat hepatocytes = experiment: DNA laddering in rat hepatocytes; type: cell-based; details: four hours; 50 μmol/L gliotoxin, 200 μmol/L chlorpromazine, 200 μmol/L methapyrilene, 10 ng/mL TNF-α with cycloheximide
Method: Hepatic stellate cells cultured in 35-mm diameter dishes (Greiner) were harvested, pelleted by centrifugation and DNA fragmentation determined as outlined elsewhere (Elsharkawy et al., Hepatology (1999) 30:761-769). Propidium Iodide Flow-Activated Cell Sorting Analysis Detached cells were pelleted by centrifugation, washed in PBS, and resuspended in HYPO buffer (0.1% wt/vol) Na3Citrate and 0.1% (wt/vol) Triton™ X-100 containing […] propidium iodide and incubated for 1 hour. The cells were then analyzed by fluorescence-activated cell sorter (FACS) with a Becton Dickinson (San Jose, Calif.) FACScan instrument using a 488 nm excitation wavelength with a band pass filter set at 530 nm. Attached cells were scraped in HYPO buffer after washing cells with PBS.
DNA laddering was also used to compare the effect of gliotoxin, chlorpromazine, methapyrilene and also the combination of TNF-α with cycloheximide on hepatocytes and hepatic stellate cells.

Bcl-2 protein = experiment: Western blotting for Bcl-2 in hepatic stellate cells; type: cell-based; details: cycloheximide 18 hours with TIMP-1 (200 ng/ml and 100 ng/ml both printed) versus cycloheximide alone
Method: Cultured hepatic stellate cells were harvested with a sterile cell scraper, pelleted by centrifugation, and then resuspended in 500 μl of TE buffer (10 mmol/Tris-HCl, 1 mmol/liter EDTA, pH 8.0) before sonication for 15 min. 100 μl of PicoGreen (Molecular Probes, Inc., Eugene, Oreg.) at 1:200 dilution was added to 100 μl of sample and incubated in the dark at room temperature for 5 min. Standards were made from herring sperm DNA. Fluorescence was measured using a Cytofluor II Microwell Fluorescence reader (Perceptive Biosystems, Framingham, Mass.) at standard wavelengths (excitation 485 nm, emission 530 nm). Concentrations of double-stranded DNA in the samples were calculated from the standard curve. […]
The protein Bcl-2 regulates the properties of cells to undergo apoptosis by interpolating into the mitochondria membrane (Hengartner, supra). […] To define changes in the protein level of Bcl-2, extracts from hepatic stellate cells treated with cycloheximide for 18 hours, either in the presence and absence of 200 ng/ml TIMP-1, were analyzed by western blotting. Equal quantities (determined by protein concentration) of protein extracts from hepatic stellate cells exposed to: serum alone; cycloheximide alone; or cycloheximide with TIMP-1 protein (100 ng/ml) were assessed by blotting.

CN1C(=O)[C@]23CC4=CC=C[C@H](O)[C@H]4N2C(=O)[C@@]1(CO)SS3 [gliotoxin]
intracellular Ca2+ levels [1]: do not rise until two hours of incubation
increase in caspase 3 activity [2]: 7.6 fold
apparent ill effects [3]: did not cause any apparent ill effects in rats
hepatic damage on histologic sections of the liver [3]: no evidence of hepatic damage
TMRM fluorescence (mitochondrial permeability) [4]: loss of TMRM fluorescence at four hours
cleavage of hepatocyte DNA to a nucleosomal ladder (rat hepatocytes): only hepatocytes treated with TNF-α and cycloheximide cleaved their DNA to a nucleosomal ladder

TIMP-1: recombinant tissue inhibitor of matrix metalloproteases 1 (Biogenesis)
Bcl-2 protein expression (Bcl-2 protein): enhanced levels of Bcl-2 protein expression

Reference: patent publication US20080220056A1, “Treatment for liver disease” (UNIVERSITY OF SOUTHAMPTON, priority 2002, published 2008)
